# Data as given in PubChem BioAssay (NCI).
# Where “and” joins values, the source holds several entries; their conditions need not be identical. Equal values may be shown once.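 Grown in 96-well plates, cells were treated for 48 hours with each compound at five concentrations. Insufficient inhibition: endpoint recorded as highest concentration tested. The concentration for 50% growth inhibition is given as GI50. At the TGI there is no net growth.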
# What was measured:
# Test in all cases: growth of human tumour cells (NCI), 48 h
# DMS 273 small cell lung = system: DMS 273 small cell lung
# DLD-1 colon = system: DLD-1 colon
# MDA-MB-231 breast = system: MDA-MB-231 breast
# MDA-MB-435 = system: MDA-MB-435
# PC-3 prostate = system: PC-3 prostate
# NCI/ADR-RES ovarian = system: NCI/ADR-RES ovarian
# MDA-N = system: MDA-N
# HOP-18 NSCLC = system: HOP-18 NSCLC
Compound,TGI (DMS 273 small cell lung),TGI (DLD-1 colon),GI50 (MDA-MB-231 breast),TGI (MDA-MB-231 breast),GI50 (MDA-MB-435),TGI (MDA-MB-435),GI50 (PC-3 prostate),TGI (PC-3 prostate),GI50 (NCI/ADR-RES ovarian),TGI (NCI/ADR-RES ovarian),GI50 (MDA-N),TGI (MDA-N),TGI (HOP-18 NSCLC)
CC1(C)C(=O)C(C)(C)C1=NN,> 100 µM,> 100 µM,,,,,,,,,,,
C/C(=N\O)c1cccc(Nc2cc(-n3ccnn3)c3ccccc3n2)c1,,,10.2 µM,25.9 µM,15.4 µM,34.2 µM,15.6 µM,38 µM,20.8 µM,> 100 µM,,,
O=C1C=CC=CC2CC=C[C@@H](O)C12 (stereo partly specified),51.5 µM,> 100 µM,,,,,,,,,,,
CCOC(=O)C1=C(c2ccccc2)N(C)c2ccccc2S1,,,,58.9 µM,,> 100 µM,,> 100 µM,,65.1 µM,,,
COc1ccc(N2Cc3cnc(Nc4ccccc4)nc3N([C@@H]3CC[C@@H](O)C3)C2=O)cc1,,,5.18 µM,> 22.3 µM,5.98 µM,> 25 µM,6.93 µM,> 25 µM,6.9 µM,> 25 µM,,,
CCCC(=O)Nc1cc(C(=O)N2C[C@@H]3C[C@]34C2=CC(=O)c2[nH]cc(C)c24)n(COC)c1,,,2.94 µM,29.5 µM and 8.01 µM,3.19 µM,19.2 µM and 12.5 µM,2.86 µM,37.5 µM and 13.2 µM,19.7 µM,50 µM and 47.7 µM,3.66 µM,19.6 µM and 13.3 µM,
CSC(CC(=O)O)C(=O)O (stereo unspecified),,,,> 100 µM,,> 100 µM,,> 100 µM,,> 100 µM,,> 100 µM,
O=C(Nc1ccc(Cl)cc1Cl)C(=O)C(C(=O)c1ccc2ccccc2c1)C1OC(=O)c2ccccc21 (stereo unspecified),,30.9 µM,,,,,,,,,,,
COc1ccc2c(c1)C(=O)c1c-2n(CCCN=[N+]=[N-])c(=O)c2cc(N(C)C)ccc12,,,> 100 µM,> 100 µM,> 100 µM,> 100 µM,> 100 µM,> 100 µM,> 100 µM,> 100 µM,,,
COc1ccccc1N=C(N)N/N=C/c1c[nH]c2ccccc12,,31.7 µM,,,,,,,,,,,34 µM
FC(F)(F)c1cc(-c2nnc3n2N=C(N2CCCC2)CS3)cc(C(F)(F)F)c1,,,32.2 µM,> 50 µM,> 50 µM,> 50 µM,> 50 µM,> 50 µM,> 50 µM,> 50 µM,,,
COc1ccc(-c2cc(=O)c3c(C)cc(C)nc3[nH]2)cc1,,,,67.5 µM,29.1 µM,> 100 µM,23.9 µM,> 100 µM,,> 100 µM,33.2 µM,> 100 µM,
O=C(O)[C@@H]1[C@H](C(=O)O)[C@H](C(=O)O)C[C@@H]1C(=O)O,,,,> 100 µM,,> 100 µM,,> 100 µM,,> 100 µM,,> 100 µM,
COc1cc2c(c(OC)c1OC)-c1ccc(N)c(=O)cc1[C@@H](NC(C)=O)CC2,,,,,< 0.01 µM,,0.0354 µM,> 100 µM,3.43 µM,41.2 µM,,,
CCCCS(=O)CCC(N)C(=O)O (stereo unspecified),,,,> 100 µM,,,,> 100 µM,,> 100 µM,,> 100 µM,
COc1ccc(-c2nc3sc(-c4ccc(Cl)cc4)cn3n2)cc1,,,2.06 µM,16.7 µM,> 50 µM,> 50 µM,> 50 µM,> 50 µM,3.75 µM,> 50 µM,,,
CCn1c(C(=O)N(C2CC2)C2CC2)cc2c3c(ncn3C)c(Nc3cc(C)n(C)n3)nc21,,,35.5 µM,> 100 µM,> 100 µM,> 100 µM,> 100 µM,> 100 µM,> 100 µM,> 100 µM,,,
O=C(Nc1ccc(F)cc1)c1ccc(NC2=C(Cl)C(=O)N(Cc3ccccc3)C2=O)cc1,,,17.2 µM,38 µM,7.07 µM,26.3 µM,7.42 µM,22.3 µM,53.3 µM,> 100 µM,,,
COc1ccc2c(c1)/C(=C\c1cccnc1)C(=O)N2,,,16.3 µM,35.5 µM,35.9 µM,> 100 µM,33.1 µM,> 100 µM,25.4 µM,70.1 µM,,,
COc1ccccc1/C=C/[N+](=O)[O-],,,2.06 µM,6.93 µM,2.59 µM,10.5 µM,2.41 µM,6.93 µM,2.92 µM,11.6 µM,,,
CCOC(=O)C1=C(C(=O)c2ccc(C)cc2)C(c2cccc([N+](=O)[O-])c2)C(C(=O)c2ccc(C)cc2)=C(C(=O)OCC)N1,,,,29 µM,,33.2 µM,,59.9 µM,,39.2 µM,,,
CCc1n(Cc2ccc3ccccc3n2)cc[n+]1Cc1ccc2ccccc2n1,,,0.441 µM,4.16 µM,0.141 µM,10.3 µM,0.163 µM,10.7 µM,> 100 µM,> 100 µM,,,
OC1c2ccccc2C2(O)C1C(c1ccccc1)C(c1ccccc1)C2(O)c1ccccc1 (stereo unspecified),23.5 µM,,,,,,,,,,,,34 µM
CC(C)CNCC(O)COc1ccc(C(C)(C)c2ccc(OCC(O)CNCC(C)C)cc2)cc1 (stereo unspecified),,,1.5 µM,3.25 µM,1.73 µM,3.29 µM,2.3 µM,7.02 µM,7.63 µM,21.4 µM,,,
CCCc1c(CC)c(=N)c2ccccc2n1C,,,> 100 µM,> 100 µM,> 100 µM,> 100 µM,71.5 µM,> 100 µM,> 100 µM,> 100 µM,,,
CCCCCCCCCCCCCCN,,,,> 100 µM,,> 100 µM,,> 100 µM,,> 100 µM,,> 100 µM,
C[C@H](NC(=O)[C@@H]1CSSC[C@@H](NC(=O)c2nc3ccccc3cc2O)C(=O)NCC(=O)N1C)c1ccccc1,,,1.94 µM,7.84 µM,0.737 µM,6.59 µM,5.98 µM,13.5 µM,11 µM,50 µM,,,
O=C(c1ccc2ccccc2c1)c1c(C(F)(F)F)n([O-])c2cc(F)c(F)cc2[n+]1=O,,,1.86 µM,3.99 µM,1.96 µM,4.12 µM,1.48 µM,2.9 µM,2.93 µM,11.2 µM,,,
